Results: patent publication US11517604B2, “Method for preparing Plectranthus amboinicus fraction having anti-arthritis activity” (ONENESS BIOTECH CO., priority 2011, dated 2022)

What was measured:
Assay type in all cases: cell-based, human
[1] = system: IFN-γ; assay: PHA-induced IFN-γ release from PBMCs (ELISA); conditions: PHA + 0.1uM DEX; PHA alone 176.8, without PHA 25.0
Experimental: (§1) The peripheral blood mononuclear cells (PBMCs) from the blood of healthy adult donors were diluted and isolated by Ficoll-Paque (FP) gradient centrifugation (Amersham Biosciences) at 600 g for 30 min at room temperature. The isolated PBMCs were washed by phosphate buffered saline, re-suspended in 10% heat inactivated fetal bovine serum (FBS), and seeded in 96-well culture plate with a density of […] cells per well for assessing the anti-arthritis activity of the extracts as described herein.
(§2) PHA-induced PBMC proliferation was used as a technical platform for the assessment of anti-inflammation efficacy of various extracts of the present invention. Human PBMCs were co-cultured with PHA at a final concentration of 5 μg/mL and various extracts of Plectranthus amboinicus at a final concentration of 0˜90 μg/mL for 3 days. […] The absorbance of each well was detected by a photoelectric colorimeter at the wavelength of 540 nm. […] Three independent experiments were performed, and the data determined by MTT assays were further expressed as IC50.
(§3) On Day 3, cell supernatant was collected, divided, and stored at −20° C. until analysis. The amounts of TNF-α, interleukin IL-6, IFN-γ, and IL-5 in the supernatant were measured using Quantikine ELISA kits (R & D Systems, Minneapolis, Minn.) following the manufacturer's instruction.

[2] = system: IL-5; assay: PHA-induced IL-5 release from PBMCs (ELISA); conditions: PHA + 0.1uM DEX; PHA alone 161.9, without PHA 37.0
Experimental: as §1, §2, §3

[3] = system: PHA-induced PBMC proliferation; assay: Inhibition of PHA-induced PBMC proliferation (MTT assay); conditions: positive control 0.1 uM; PHA 5 μg/mL, 3 days; PHA alone 0.634, without PHA 0.245
Experimental: as §1
as §2, with “days. PBMCs treated by dexamethasone (DEX) before stimulation by PHA (5 μg/mL) were also included in the experiment as positive control samples. After cells were incubated for 3 days at 37° C. with humid air containing 5% CO2, MTT (methyl thiazolyl tetrazolium, MTT) assays were carried out to evaluate the proliferation rate of PBMCs.” for “days.”

[4] = system: IL-6; assay: PHA-induced IL-6 release from PBMCs (ELISA); conditions: PHA + 0.1uM DEX; PHA alone 703.0, without PHA 157
Experimental: as §1, §2, §3

[5] = system: TNF-α; assay: PHA-induced TNF-α release from PBMCs (ELISA); conditions: PHA + 0.1uM DEX; PHA alone 4031.3, without PHA 271.6
Experimental: as §1, §2, §3

## C[C@@H]1C[C@H]2[C@@H]3CCC4=CC(=O)C=C[C@]4(C)[C@@]3(F)[C@@H](O)C[C@]2(C)[C@@]1(O)C(=O)CO [DEX, dexamethasone]
[1]
  Concentration of IFN-γ released from PBMCs: 25 pg/mL
[2]
  Concentration of IL-5 released from PBMCs: 37 pg/mL
[3]
  PHA-induced PBMC proliferation, MTT assay data (absorbance 540 nm): 0.242
[4]
  Concentration of IL-6 released from PBMCs: 157 pg/mL
[5]
  Concentration of TNF-α released from PBMCs: 272.5 pg/mL
